# From PMC11842024, “Reversible male contraception by targeted inhibition of serine/threonine kinase 33” (Science (New York, N.Y.), 2024)
# Legend:
# Assay in all cases: NanoBRET target engagement intracellular kinase assay
# Assay type in all cases: cell-based
# Set-up in all cases: host or cells: HEK293 (HEK293T cultured)
# STK33 = STK33 (Homo sapiens, UniProt Q9BYT3)
# Experimental: (§1) NanoBRET Target Engagement intracellular kinase assay. HEK293T cells were cultured in […]
# (§2) The cell line underwent authentication by short tandem repeat (STR) profiling at Cytogenetics and Cell Authentication Core (CCAC) at MD Anderson Cancer Center. NanoBRET Target Engagement intracellular kinase assay, K-10 assay (Cat. # N2641), K-9 assay (Cat. # N2631), transfection reagent FuGENE HD (Cat. # E2311), transfection carrier DNA (Cat. # E4881), NanoLuc-STK33 fusion vector (Cat. # NV2111), NanoLuc-RET fusion vector (Cat. # NV1951), NanoLuc-CLK1 fusion vector (Cat. # NV1131), NanoLuc-CLK2 fusion vector (Cat. # NV1141), and NanoLuc-CLK4 fusion vector (Cat. # NV1151) were purchased from Promega. The measurement of test compound engagement with cellular target protein was performed in a 384-well format according to manufacturer’s instructions. HEK293 cells were transiently transfected with NanoLuc (STK33, RET, CLK1, CLK2, and CLK4) fusion vectors. After 36 hours of transfection, cells were treated with a fixed concentration of tracer (recommended by Promega) followed by compounds (inhibitors) for 2 hours of incubation. To determine the test compound […]
# (§3) 0.4 nM at a fixed tracer concentration. Staurosporine was measured in parallel as a positive control.
# (§4) Freshly prepared NanoBRET Nano-Glo substrate plus extracellular NanoLuc inhibitor was then added to initiate the subsequent bioluminescence resonance energy transfer (BRET) measurements using a CLARIOstar Plus BMG LABTECH plate reader. Data analysis was done by measuring the ratio of acceptor emission to donor emission (BRET ratio) and normalized by subtracting no-tracer-control-background. IC50 values were obtained by nonlinear regression using a four-parameter equation in GraphPad Prism 7 (San Diego, CA).
# CLK2 = CLK2 (Homo sapiens, UniProt P49760)
# Sequence of CLK2 (P49760 whole entry): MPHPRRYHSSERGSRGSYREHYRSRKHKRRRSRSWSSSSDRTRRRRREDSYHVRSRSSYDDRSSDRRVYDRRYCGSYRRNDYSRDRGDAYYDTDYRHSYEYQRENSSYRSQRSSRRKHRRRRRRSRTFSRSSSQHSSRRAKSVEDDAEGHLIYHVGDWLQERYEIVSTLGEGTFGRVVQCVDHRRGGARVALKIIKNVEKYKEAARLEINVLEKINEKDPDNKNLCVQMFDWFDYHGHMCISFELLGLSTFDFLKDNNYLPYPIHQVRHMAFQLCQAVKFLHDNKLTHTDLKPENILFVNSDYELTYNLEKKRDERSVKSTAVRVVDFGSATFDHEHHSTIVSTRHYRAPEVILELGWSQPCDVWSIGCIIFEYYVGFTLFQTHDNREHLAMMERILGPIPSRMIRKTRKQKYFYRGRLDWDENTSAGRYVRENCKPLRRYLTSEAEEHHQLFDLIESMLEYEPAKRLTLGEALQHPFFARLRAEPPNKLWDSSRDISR
# Experimental: as §1, §2, §3, §4
# CLK1 = CLK1 (Homo sapiens, UniProt P49759)
# Sequence of CLK1 (P49759 whole entry): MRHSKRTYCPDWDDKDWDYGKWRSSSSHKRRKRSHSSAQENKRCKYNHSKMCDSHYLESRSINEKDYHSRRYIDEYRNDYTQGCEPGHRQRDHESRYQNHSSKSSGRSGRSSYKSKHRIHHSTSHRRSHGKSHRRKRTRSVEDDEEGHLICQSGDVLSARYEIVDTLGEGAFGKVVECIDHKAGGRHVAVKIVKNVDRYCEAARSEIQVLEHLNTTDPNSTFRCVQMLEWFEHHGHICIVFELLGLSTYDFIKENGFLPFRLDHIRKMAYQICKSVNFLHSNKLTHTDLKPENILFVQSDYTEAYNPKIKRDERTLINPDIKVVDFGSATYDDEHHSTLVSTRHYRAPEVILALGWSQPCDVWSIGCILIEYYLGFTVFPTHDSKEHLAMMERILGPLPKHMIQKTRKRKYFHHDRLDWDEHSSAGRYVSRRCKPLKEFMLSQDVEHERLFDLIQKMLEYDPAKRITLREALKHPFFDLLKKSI
# Experimental: as §1, §2, §3, §4
# RET = RET (Homo sapiens, UniProt P07949)
# Sequence of RET (P07949 29-1114): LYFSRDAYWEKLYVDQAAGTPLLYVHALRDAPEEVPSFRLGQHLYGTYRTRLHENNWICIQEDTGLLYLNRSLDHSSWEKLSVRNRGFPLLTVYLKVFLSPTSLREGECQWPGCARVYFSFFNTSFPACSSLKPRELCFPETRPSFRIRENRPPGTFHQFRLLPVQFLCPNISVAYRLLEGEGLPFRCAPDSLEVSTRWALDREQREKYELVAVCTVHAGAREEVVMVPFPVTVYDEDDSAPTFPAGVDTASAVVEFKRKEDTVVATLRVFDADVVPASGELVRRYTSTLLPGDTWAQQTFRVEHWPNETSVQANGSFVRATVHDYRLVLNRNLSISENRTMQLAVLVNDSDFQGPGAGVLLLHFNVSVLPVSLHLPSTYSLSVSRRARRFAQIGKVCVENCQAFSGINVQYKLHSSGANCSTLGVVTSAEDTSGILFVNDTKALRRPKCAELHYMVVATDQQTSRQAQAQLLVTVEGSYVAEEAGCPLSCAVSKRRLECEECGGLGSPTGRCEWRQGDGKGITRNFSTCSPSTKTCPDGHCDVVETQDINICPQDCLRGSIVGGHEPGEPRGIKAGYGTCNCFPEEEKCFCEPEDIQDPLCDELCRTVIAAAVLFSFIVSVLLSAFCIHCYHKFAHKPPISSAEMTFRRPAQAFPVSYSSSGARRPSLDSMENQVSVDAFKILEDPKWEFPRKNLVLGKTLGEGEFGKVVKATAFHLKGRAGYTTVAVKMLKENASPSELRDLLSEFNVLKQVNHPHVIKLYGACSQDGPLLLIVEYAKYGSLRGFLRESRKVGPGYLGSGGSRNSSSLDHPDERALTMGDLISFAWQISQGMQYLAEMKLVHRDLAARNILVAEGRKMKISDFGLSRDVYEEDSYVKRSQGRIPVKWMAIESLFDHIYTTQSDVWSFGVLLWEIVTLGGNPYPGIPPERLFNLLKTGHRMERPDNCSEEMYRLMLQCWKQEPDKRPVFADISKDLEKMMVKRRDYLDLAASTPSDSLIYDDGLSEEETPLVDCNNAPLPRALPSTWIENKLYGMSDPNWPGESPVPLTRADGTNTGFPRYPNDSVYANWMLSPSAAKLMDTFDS
# Experimental: as §1, §2, §3, §4
# CLK4 = CLK4 (Homo sapiens, UniProt Q9HAZ1)
# Sequence of CLK4 (Q9HAZ1 whole entry): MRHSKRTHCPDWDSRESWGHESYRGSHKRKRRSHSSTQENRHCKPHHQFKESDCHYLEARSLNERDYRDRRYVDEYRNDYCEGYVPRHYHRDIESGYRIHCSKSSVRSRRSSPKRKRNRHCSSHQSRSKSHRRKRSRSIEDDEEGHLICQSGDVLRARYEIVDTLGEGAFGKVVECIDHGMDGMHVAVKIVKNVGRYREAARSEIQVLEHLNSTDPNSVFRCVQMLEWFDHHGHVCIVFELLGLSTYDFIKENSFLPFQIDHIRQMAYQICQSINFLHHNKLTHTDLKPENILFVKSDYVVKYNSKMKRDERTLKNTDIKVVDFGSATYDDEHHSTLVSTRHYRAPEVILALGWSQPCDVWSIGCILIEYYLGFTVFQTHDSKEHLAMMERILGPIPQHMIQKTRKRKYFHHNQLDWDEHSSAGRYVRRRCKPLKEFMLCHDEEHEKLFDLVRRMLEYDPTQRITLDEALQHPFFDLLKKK
# Experimental: as §1, §2, §3, §4
# [1] = HEK293 cells, 2 hours incubation
# Sequence of STK33 (Q9BYT3 whole entry): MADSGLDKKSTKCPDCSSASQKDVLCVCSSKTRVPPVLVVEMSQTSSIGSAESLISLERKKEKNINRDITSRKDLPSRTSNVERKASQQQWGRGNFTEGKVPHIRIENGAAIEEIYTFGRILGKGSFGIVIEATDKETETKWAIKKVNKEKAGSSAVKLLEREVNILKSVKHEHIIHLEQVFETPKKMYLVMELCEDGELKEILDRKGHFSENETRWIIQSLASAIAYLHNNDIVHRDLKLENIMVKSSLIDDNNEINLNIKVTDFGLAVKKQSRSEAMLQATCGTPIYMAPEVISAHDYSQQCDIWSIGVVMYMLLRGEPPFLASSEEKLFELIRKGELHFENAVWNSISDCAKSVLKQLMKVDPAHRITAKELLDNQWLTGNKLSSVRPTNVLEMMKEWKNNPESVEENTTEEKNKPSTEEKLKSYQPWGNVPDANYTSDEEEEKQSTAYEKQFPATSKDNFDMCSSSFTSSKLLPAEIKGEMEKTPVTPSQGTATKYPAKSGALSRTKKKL
smiles,measurement,setting,value
O=C(c1ccc2[nH]nc(C#Cc3ccccc3-c3ccccc3)c2c1)N1CC2(CCCNC2)C1 [CDD-2807],"selectivity toward STK33 compared to CLK1, CLK2, CLK4, and RET",STK33,> 9 fold
same,IC50,STK33; [1],9.2 nM
same,IC50,CLK2; [1],101 nM
same,Fold NanoBRET IC50 CLK2 over STK33 (in parentheses),CLK2; selectivity vs STK33,11 X
same,IC50,CLK1; [1],116 nM
same,Fold NanoBRET IC50 CLK1 over STK33 (in parentheses),CLK1; selectivity vs STK33,13 X
same,IC50,RET; [1],363 nM
same,Fold NanoBRET IC50 RET over STK33 (in parentheses),RET; selectivity vs STK33,39 X
same,IC50,CLK4; [1],85 nM
same,Fold NanoBRET IC50 CLK4 over STK33 (in parentheses),CLK4; selectivity vs STK33,9 X
